{"source": "patent US20080317843A1", "about": "“NANOPARTICULATE FORMULATIONS OF MODAFINIL” (Elan Corporation plc, priority 2006, published 2008)", "origin": "cited, not measured here", "key": {"[1]": {"conditions": "for share of trough concentration (Cminss) of circulating modafinil: after once daily dosing"}, "[2]": {"target": "CYP2C19 (Homo sapiens, UniProt P33261)", "sequence (P33261 whole entry)": "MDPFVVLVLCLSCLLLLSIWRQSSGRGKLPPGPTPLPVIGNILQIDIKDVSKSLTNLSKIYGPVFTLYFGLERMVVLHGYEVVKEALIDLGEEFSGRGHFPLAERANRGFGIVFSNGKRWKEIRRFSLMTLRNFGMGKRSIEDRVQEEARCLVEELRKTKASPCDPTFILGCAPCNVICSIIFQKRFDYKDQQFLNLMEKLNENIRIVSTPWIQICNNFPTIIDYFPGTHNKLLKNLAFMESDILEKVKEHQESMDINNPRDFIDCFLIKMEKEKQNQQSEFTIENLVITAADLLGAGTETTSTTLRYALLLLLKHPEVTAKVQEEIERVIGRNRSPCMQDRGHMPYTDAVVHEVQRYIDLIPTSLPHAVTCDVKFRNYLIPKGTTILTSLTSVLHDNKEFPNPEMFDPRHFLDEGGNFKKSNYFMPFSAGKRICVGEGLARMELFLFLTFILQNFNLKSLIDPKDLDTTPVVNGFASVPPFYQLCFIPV"}, "[3]": {"system": "receptors for norepinephrine", "conditions": "pharmacologically relevant concentrations"}, "[4]": {"target": "receptors for histamine-3 (Homo sapiens, UniProt Q9Y5N1)", "sequence (Q9Y5N1 whole entry)": "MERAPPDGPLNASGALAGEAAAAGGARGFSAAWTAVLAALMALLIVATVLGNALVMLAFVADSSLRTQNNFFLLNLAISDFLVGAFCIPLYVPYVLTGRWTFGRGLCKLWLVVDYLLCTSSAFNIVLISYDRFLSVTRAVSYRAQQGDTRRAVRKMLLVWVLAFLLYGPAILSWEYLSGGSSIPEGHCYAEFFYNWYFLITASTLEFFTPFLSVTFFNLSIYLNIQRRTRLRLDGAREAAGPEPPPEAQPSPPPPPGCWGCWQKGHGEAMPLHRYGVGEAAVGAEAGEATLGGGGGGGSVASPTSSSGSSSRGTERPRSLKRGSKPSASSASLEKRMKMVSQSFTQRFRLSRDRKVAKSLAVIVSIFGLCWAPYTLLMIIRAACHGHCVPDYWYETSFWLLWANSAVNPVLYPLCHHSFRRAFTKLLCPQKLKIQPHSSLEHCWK", "conditions": "pharmacologically relevant concentrations"}, "[5]": {"system": "receptors for melatonin", "conditions": "pharmacologically relevant concentrations"}, "[6]": {"system": "receptors for serotonin", "conditions": "pharmacologically relevant concentrations"}, "[7]": {"target": "T1, MAO-B (Homo sapiens, UniProt P27338)", "T1 sequence (P27338 1-520)": "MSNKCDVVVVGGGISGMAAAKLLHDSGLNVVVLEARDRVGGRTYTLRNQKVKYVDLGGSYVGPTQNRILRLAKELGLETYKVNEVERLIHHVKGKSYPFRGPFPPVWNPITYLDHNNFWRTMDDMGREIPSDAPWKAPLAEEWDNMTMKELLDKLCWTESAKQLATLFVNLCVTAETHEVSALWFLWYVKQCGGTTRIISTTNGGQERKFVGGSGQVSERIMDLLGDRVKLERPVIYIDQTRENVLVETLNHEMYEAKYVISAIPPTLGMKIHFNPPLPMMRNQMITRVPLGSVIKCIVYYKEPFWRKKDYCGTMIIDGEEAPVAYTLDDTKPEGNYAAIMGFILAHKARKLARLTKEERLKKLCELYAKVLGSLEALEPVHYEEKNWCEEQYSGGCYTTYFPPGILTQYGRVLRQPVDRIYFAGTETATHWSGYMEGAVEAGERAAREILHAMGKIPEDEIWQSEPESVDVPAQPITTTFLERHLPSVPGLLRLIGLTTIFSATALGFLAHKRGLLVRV"}, "[8]": {"system": "phosphodiesterases II-V"}, "[9]": {"system": "receptors for benzodiazepines", "conditions": "pharmacologically relevant concentrations"}, "[10]": {"system": "receptors for adenosine", "conditions": "pharmacologically relevant concentrations"}, "[11]": {"system": "receptors for GABA", "conditions": "pharmacologically relevant concentrations"}, "[12]": {"system": "CYP3A4", "conditions": "chronic administration of modafinil 400 mg; substrates given orally"}}, "data": [{"smiles": "NC(=O)C[S@@+]([O-])C(c1ccccc1)c1ccccc1", "note": "(single isomer, unassigned) [l-isomer]", "values": [{"measurement": "share of trough concentration (Cminss) of circulating modafinil", "setting": "[1]", "value": 90, "unit": "%"}, {"measurement": "total exposure relative to the d-isomer", "setting": "[1]; at steady state", "value": "approximately three times"}, {"measurement": "half-life relative to the d-isomer", "setting": "[1]; humans", "value": "approximately three times"}]}, {"smiles": "NC(=O)C[S+]([O-])C(c1ccccc1)c1ccccc1", "note": "(single isomer, unassigned) [d-isomer]", "values": [{"measurement": "share of trough concentration (Cminss) of circulating modafinil", "setting": "[1]", "value": 10, "unit": "%"}]}, {"smiles": "NC(=O)C[S+]([O-])C(c1ccccc1)c1ccccc1", "note": "(centres unmarked) [modafinil, 2-[(diphenylmethyl)sulfinyl]acetamide]", "values": [{"measurement": "inhibition of CYP2C19", "setting": "[2]", "value": "reversible inhibitors"}, {"measurement": "binding to receptors for norepinephrine", "setting": "[3]", "value": "does not bind"}, {"measurement": "binding to receptors for histamine-3", "setting": "[4]", "value": "does not bind"}, {"measurement": "binding to receptors for melatonin", "setting": "[5]", "value": "does not bind"}, {"measurement": "binding to receptors for serotonin", "setting": "[6]", "value": "does not bind"}, {"measurement": "inhibition of the activity of MAO-B", "setting": "[7]", "value": "does not inhibit"}, {"measurement": "inhibition of the activities of phosphodiesterases II-V", "setting": "[8]", "value": "does not inhibit"}, {"measurement": "binding to receptors for benzodiazepines", "setting": "[9]", "value": "does not bind"}, {"measurement": "binding to receptors for adenosine", "setting": "[10]", "value": "does not bind"}, {"measurement": "effective elimination half-life", "setting": "[1]; after multiple doses", "value": "about 15 hours"}, {"measurement": "decrease in oral clearance (CL/F)", "setting": "[1]; single dose 200 mg, 12 subjects mean age 63 years vs matched younger subjects", "value": "~20", "unit": "%"}, {"measurement": "delay of absorption and (tmax) if taken with food", "setting": "[1]; with food", "value": "delayed by approximately one hour"}, {"measurement": "effect of food on overall bioavailability", "setting": "[1]; with food", "value": "no effect"}, {"measurement": "binding to receptors for GABA", "setting": "[11]", "value": "does not bind"}, {"measurement": "systemic exposure to two CYP3A4 substrates, ethinyl estradiol, and triazolam", "setting": "[12]", "value": "decrease"}, {"measurement": "solubility in acetone", "value": "sparingly to slightly soluble"}, {"measurement": "aqueous insolubility", "setting": "aqueous", "value": "< 1000", "unit": "µg/mL"}, {"measurement": "solubility in cyclohexane", "value": "practically insoluble"}, {"measurement": "solubility in methanol", "value": "sparingly to slightly soluble"}, {"measurement": "solubility in water", "value": "practically insoluble"}]}, {"smiles": "O=C(C[S+]([O-])C(c1ccccc1)c1ccccc1)NO", "note": "(centres unmarked) [Adrafinil, 2-(diphenylmethyl) sulfinyl acetohydroxamic acid]", "values": [{"measurement": "solubility in acetone", "value": "sparingly to slightly soluble"}, {"measurement": "solubility in cyclohexane", "value": "practically insoluble"}, {"measurement": "solubility in methanol", "value": "sparingly to slightly soluble"}, {"measurement": "solubility in water", "value": "practically insoluble"}]}, {"smiles": "NC(=O)CS(=O)(=O)C(c1ccccc1)c1ccccc1", "note": "[modafinil sulfone]", "values": [{"measurement": "inhibition of CYP2C19", "setting": "[2]", "value": "reversible inhibitors"}]}]}
